Experimental data taken from PMC9837035 (Nature Communications, 2023).
Values joined by “and” are separate entries in the source; they are usually repeats but may differ in a detail not shown here. Equal values may be shown once. Read-outs that look alike come from different tables or passages of the source.

What was measured:
[1] = test system: H3K9me2 at the β-globin locus; assay: ChIP-qPCR with antibody against H3K9me2 in HUDEP-2 cells; assay type: cell-based, human; parameters: ChIP-qPCR using antibodies against H3K9me2 in HUDEP-2 cells: scale not given here; settings: for ChIP-qPCR using antibodies against H3K9me2 in HUDEP-2 cells: experiments 1-3, a/b replicates
Protocol: A total of 0.5–1 × 10^6 cells were cross-linked with 1% formaldehyde for 10 min at room temperature and the reaction was quenched with 250 mM glycine. Cross-linked cells were then lysed with buffer 1 (15 mM Tris-HCl (pH 7.5), 60 mM KCl, 15 mM NaCl, 5 mM MgCl2, 0.1 mM EGTA, 300 mM sucrose, […], 1 mM phenylmethanesulfonyl fluoride (PMSF), 0.5% NP40) and incubated on ice for 10 min. After centrifugation, the pellet was re-suspended in buffer 2 (15 mM Tris-HCl (pH 7.5), 60 mM KCl, 15 mM NaCl, 5 mM MgCl2, 0.1 mM EGTA, 1.2 M sucrose, […], 1 mM PMSF). After centrifugation, the pellet was then re-suspended in MNase buffer (50 mM Tris-HCl (pH 7.5), 1 mM CaCl2, 4 mM MgCl2, 320 mM sucrose, 1 mM PMSF) and digested with 100 U of micrococcal nuclease (Takara) at 37 °C for 15 min. After the reaction was quenched with 20 mM EDTA, the supernatants were incubated with antibodies (anti-H3K9me2 (1:100), Abcam, ab1220; anti-H3K9ac (1:100), Active Motif, 39917; Goat anti-IgG (H + L) (1:100), Jackson Immunoresearch; anti-BCL11A (1:100), Novus Biologicals, NB600-261; anti-ZBTB7A (1:100), Thermo Fisher Scientific, eBioscience (13E9); anti-CHD3 (1:100), Novus Biologicals, NB-100-60412; anti-CHD4 (1:100), abcam, ab240640) and Protein A/G PLUS-Agarose (Santa Cruz Biotechnology) overnight at 4 °C. Beads were washed sequentially once with the following buffers: wash buffer A (50 mM Tris-HCl (pH 7.5), 75 mM NaCl, 10 mM EDTA, 0.01% NP40), wash buffer B (50 mM Tris-HCl (pH 7.5), 100 mM NaCl, 10 mM EDTA, 0.01% NP40), wash buffer C (50 mM Tris-HCl (pH 7.5), 175 mM NaCl, 10 mM EDTA, 0.01% NP40). After treatment with proteinase K in buffer 4 (20 mM Tris-HCl (pH 8.0), 10 mM EDTA, 400 mM NaCl, 0.5% SDS) at 56 °C overnight, DNA was purified using the FastGene Gel/PCR Extraction Kit (Nippon Genetics). The samples were analyzed by qPCR. Primers are listed in Supplementary Table 10. ChIP-seq experiments were performed by GENEWIZ. Tracks were visualized using the integrative genome viewer. ChIP-seq analysis were analyzed Cutadapt (V1.9.1) for QC, FastQC (V0.10.1) for QC assessment, Bowtie (V2.1.0) for mapping, strand cross-correlation (SCC) for ChIP quality assessment, MACS2 for peak calling, and R package ChIPpeakAnno for Peak annotated.

NSD3 = biological target: T1, NSD3 (Homo sapiens, UniProt Q9BZ95); assay: Radioisotope-based methyltransferase assay (selectivity); assay type: biochemical; settings: read-out: IC50
T1 construct: purchased Reaction Biology
T1 sequence (Q9BZ95 1-1437): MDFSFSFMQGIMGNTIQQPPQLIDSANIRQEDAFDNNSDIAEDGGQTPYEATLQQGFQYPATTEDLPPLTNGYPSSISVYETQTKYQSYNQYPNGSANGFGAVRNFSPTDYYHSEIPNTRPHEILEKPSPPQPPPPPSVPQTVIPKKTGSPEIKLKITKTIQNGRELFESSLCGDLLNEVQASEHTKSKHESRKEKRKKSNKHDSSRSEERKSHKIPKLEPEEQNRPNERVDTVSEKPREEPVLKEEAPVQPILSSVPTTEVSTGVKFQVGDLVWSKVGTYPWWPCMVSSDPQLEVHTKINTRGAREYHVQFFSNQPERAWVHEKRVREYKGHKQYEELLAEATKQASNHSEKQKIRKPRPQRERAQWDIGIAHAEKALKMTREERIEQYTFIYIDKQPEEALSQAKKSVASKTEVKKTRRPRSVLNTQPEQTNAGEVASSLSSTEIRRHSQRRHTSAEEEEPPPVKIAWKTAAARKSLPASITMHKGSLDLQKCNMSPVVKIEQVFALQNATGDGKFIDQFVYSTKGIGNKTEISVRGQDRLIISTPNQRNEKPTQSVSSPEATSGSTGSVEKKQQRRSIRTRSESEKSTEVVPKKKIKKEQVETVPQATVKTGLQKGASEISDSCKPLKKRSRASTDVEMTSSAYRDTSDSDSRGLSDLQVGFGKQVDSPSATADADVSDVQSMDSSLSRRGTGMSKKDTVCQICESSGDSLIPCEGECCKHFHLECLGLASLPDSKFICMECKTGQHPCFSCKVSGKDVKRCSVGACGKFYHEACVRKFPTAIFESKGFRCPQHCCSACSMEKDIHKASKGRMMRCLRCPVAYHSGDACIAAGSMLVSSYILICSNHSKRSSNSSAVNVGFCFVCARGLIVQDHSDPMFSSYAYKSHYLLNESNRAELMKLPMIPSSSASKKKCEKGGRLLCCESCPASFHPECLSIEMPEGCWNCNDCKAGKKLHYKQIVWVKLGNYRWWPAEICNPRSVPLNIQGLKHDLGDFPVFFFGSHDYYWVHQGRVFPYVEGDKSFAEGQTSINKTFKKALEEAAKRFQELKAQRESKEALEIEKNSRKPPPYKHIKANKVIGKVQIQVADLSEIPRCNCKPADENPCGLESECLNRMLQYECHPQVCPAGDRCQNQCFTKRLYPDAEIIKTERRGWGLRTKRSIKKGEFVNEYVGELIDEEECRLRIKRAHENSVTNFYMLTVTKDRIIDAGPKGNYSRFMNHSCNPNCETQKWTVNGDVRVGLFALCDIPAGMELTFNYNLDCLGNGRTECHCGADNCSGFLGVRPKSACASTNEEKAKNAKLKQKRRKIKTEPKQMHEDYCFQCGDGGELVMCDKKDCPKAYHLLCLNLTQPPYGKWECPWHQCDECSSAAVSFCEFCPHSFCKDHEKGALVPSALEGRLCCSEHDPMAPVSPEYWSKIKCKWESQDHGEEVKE

PRMT1 = PRMT1 (Homo sapiens, UniProt Q99873)
PRMT1, sequence (Q99873 whole entry): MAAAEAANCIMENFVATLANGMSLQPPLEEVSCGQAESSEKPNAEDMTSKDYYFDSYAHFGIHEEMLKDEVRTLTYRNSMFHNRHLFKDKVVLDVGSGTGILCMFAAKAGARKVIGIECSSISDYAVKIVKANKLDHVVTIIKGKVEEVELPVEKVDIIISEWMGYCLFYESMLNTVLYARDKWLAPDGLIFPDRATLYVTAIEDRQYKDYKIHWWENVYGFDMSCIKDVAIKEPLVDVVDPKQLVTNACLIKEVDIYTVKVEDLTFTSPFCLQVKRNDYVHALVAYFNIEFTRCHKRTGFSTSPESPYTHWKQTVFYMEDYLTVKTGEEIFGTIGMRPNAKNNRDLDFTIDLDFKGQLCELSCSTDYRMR

NC(=O)NO [Hydroxyurea, hydroxyurea]
ChIP-qPCR using antibodies against H3K9me2 in HUDEP-2 cells ([1]; BGLT3 locus): 0.3036 and 0.9734 and 0.09549 and 0.1907 and 0.4324 and 0.08257
ChIP-qPCR using antibodies against H3K9me2 in HUDEP-2 cells ([1]; HS1): 0.1874 and 0.4067 and 0.1711 and 0.2985 and 0.4573 and 0.2803
ChIP-qPCR using antibodies against H3K9me2 in HUDEP-2 cells ([1]; HS2): 0.813 and 0.5625 and 0.04813 and 0.5561 and 0.988
ChIP-qPCR using antibodies against H3K9me2 in HUDEP-2 cells ([1]; HS3): 0.3829 and 1.033 and 0.3275 and 0.3135 and 0.5984 and 0.1213
ChIP-qPCR using antibodies against H3K9me2 in HUDEP-2 cells ([1]; HS4): 0.2695 and 0.4846 and 0.05083 and 0.7217 and 0.09433
H3K9me2 levels at the β-globin gene locus ([1]; HUDEP-2, 200 μM, 4 days): did not alter H3K9me2 levels
ChIP-qPCR using antibodies against H3K9me2 in HUDEP-2 cells ([1]; β-globin promoter): 0.2611 and 0.4698 and 0.1317 and 0.1934 and 0.3991 and 0.1179
ChIP-qPCR using antibodies against H3K9me2 in HUDEP-2 cells ([1]; γ-globin promoter): 0.6385 and 1.7009 and 0.2449 and 0.8192 and 0.4081
ChIP-qPCR using antibodies against H3K9me2 in HUDEP-2 cells ([1]; δ-globin promoter): 0.1111 and 0.2374 and 0.06666 and 0.1168 and 0.2688 and 0.05187

Cc1c(C(=O)NC(CCC2CC2)C(=O)Nc2ccc(C#N)cc2)[nH]c2c1C(=O)CC(C)(C)C2 (stereo not drawn) [RK-701]
IC50 (NSD3; NSD3, 1 μM SAM): > 100 µM
IC50 (NSD3; NSD3, RK-701 in duplicate): > 100 µM
IC50 (PRMT1): > 100 µM
